Molecular target: T1, FXR (CMX-hFXR) (Homo sapiens, UniProt Q96RI1)
T1 construct: expressed in transfected cells; host or cells: CV-1 African Green Monkey Kidney cells
T1 sequence (Q96RI1 1-472 isoform Q96RI1-2): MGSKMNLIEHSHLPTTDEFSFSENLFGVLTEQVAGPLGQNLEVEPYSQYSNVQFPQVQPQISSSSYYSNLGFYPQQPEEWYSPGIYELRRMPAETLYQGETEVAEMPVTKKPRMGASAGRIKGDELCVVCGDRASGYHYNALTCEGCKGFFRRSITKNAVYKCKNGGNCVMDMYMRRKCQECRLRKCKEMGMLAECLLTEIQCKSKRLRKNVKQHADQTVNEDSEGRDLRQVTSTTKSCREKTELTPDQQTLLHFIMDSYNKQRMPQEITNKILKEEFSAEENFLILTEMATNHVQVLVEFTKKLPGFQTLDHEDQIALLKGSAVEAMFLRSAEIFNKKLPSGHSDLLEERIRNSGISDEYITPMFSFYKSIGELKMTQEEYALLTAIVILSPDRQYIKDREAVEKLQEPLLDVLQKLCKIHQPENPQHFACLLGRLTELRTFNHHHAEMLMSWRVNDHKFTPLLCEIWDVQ
T1 sequence (P19793 1-462 partner): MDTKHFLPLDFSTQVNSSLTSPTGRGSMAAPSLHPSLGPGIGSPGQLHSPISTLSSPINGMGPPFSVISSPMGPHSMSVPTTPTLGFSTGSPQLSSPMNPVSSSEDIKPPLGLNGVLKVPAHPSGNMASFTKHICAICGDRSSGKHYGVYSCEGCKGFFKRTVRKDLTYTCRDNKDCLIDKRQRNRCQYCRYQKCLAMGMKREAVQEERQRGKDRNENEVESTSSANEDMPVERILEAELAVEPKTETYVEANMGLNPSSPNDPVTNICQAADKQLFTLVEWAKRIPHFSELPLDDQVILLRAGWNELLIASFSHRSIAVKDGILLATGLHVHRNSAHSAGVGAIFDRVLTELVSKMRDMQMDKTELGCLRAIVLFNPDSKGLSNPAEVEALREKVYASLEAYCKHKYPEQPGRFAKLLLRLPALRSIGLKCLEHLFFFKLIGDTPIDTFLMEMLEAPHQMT
Test: FXR co-transfection assay (FXR/ECREx7)
Type: cell-based
Conditions: for EC50: CV-1 cells, agonist mode; for Emax: relative to maximum response of chenodeoxycholic acid (CDCA), read-out: % efficacy
Procedure: The basic co-transfection protocol for measuring FXR activity is as follows. CV-1 African Green Monkey Kidney cells are plated 24 hours before transfection to achieve approximately 70-80 percent confluency. Cells are transfected with CMX-hFXR, CMX-RXRα, Luc12 reporter (ECREx7-Tk-Luciferase), and a CMX-β-Galactosidase expression vector (See WO 00/76523). The transfection reagent used is DOTAP (Boehringer Mannheim). Cells are incubated with the DOTAP/DNA mixture for 5 hours after which the cells are harvested and plated onto either 96 well or 384 well plates containing the appropriate concentration of test compound. The assay is allowed to continue for an additional 18-20 hours, after which the cells are lysed, with lysis buffer (1% triton X 100, 10% glycerol, 5 mM Dithiothreitol, 1 mM EGTA, 25 mM Tricine, pH 7.8) and the luciferase activity is measured in the presence of Luciferase assay buffer (0.73 mM ATP, 22.3 mM Tricine, 0.11 mM EGTA, 0.55 mM Luciferin, 0.15 mM Coenzyme A, 0.5 mM HEPES, 10 mM Magnesium sulphate) on a standard luminometer plate reader (PE Biosystems, NorthStar Reader).
Both the FXR/ECREx7 co-transfection assay (Example 15) and the TR-FRET assay (Example 16) can be used to establish the EC50/IC50 values for potency and percent activity or inhibition for efficacy. Efficacy defines the activity of a compound relative to a high control (chenodeoxycholic acid, CDCA) or a low control (DMSO/vehicle). The dose response curves are generated from an 8 point curve with concentrations differing by 1/2 LOG units. Each point represents the average of 4 wells of data from a 384 well plate. The curve for the data is generated by using the equation: Y=Bottom+(Top−Bottom)/(1+10^((Log EC50−X)*HillSlope))
The EC50/IC50 is therefore defined as the concentration at which an agonist or antagonist elicits a response that is half way between the Top (maximum) and Bottom (baseline) values. The EC50/IC50 values represented are the averages of at least 3 independent experiments. The determination of the relative efficacy or % control for an agonist is by comparison to the maximum response achieved by chenodeoxycholic acid that is measured individually in each dose response experiment.
For the antagonist assay, CDCA is added to each well of a 384 well plate to elicit a response. The % inhibition for each antagonist is therefore a measurement of the inhibition of the activity of CDCA. In this example, 100% inhibition would indicate that the activity of CDCA has been reduced to baseline levels, defined as the activity of the assay in the presence of DMSO only.

| Structure (SMILES) | EC50 | Emax |
| --- | --- | --- |
| COc1ccc(-n2c(C(C)N(C)S(=O)(=O)c3ccc(C(C)(C)C)cc3)nc3ccc(OC)cc3c2=O)cc1 (stereo not shown) [4-tert-butyl-N-{1-[6-methoxy-3-(4-methoxyphenyl)-4-oxo-3,4-dihydroquinazolin-2-yl]ethyl}-N-methylbenzenesulfonamide] | ~300 nM | ~190% |
| Cc1ccc(-n2c(C(C)N(C)S(=O)(=O)c3ccc(C(C)(C)C)cc3)nc3ccc(-c4cccs4)cc3c2=O)cc1 (stereo not shown) | ~600 nM | ~110% |
